The record followed here is patent US8791148B2, “Substituted benzimidazolone derivatives, medicaments comprising them and their use” (AbbVie Deutschland GmbH & Co. KG, priority 2006, dated 2014).

This experiment deals with T1, human vasopressin V1b receptor (Homo sapiens, UniProt P47901).
T1 construct: expressed in transfected cells; host or cells: CHO-K1 (cell line hV1b-3H2_CHO), membrane preparation
T1 sequence (P47901 1-424): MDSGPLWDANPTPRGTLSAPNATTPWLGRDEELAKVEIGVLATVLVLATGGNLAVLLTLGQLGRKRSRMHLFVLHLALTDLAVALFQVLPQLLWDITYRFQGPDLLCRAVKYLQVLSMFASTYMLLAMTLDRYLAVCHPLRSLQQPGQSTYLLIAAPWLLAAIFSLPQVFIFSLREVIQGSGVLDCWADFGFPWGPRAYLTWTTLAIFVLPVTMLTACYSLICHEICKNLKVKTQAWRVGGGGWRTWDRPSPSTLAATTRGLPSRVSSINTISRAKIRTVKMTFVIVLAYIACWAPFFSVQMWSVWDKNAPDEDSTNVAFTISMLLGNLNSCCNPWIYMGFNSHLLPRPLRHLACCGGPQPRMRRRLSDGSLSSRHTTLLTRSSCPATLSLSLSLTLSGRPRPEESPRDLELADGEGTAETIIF
As to the kind of experiment: Vasopressin V1b receptor binding assay. The settings on record: membranes from CHO-K1 cells with stably expressed human V1b receptors; displacement of 1.5 nM 3H-AVP; read-out: V1b receptor affinity (affinity constant Ki). The essentials: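 Ki values come from nonlinear regression of triplicate scintillation counts after filtration. Test compound (2% DMSO in the mixture) and radioligand were incubated 60 min at room temperature with human V1b membranes in pH 7.4 Tris buffer with 10 mM MgCl2 and 0.1% BSA. Nonspecific binding was set with 1 uM AVP.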
A word on the Ki: it is a measure of affinity in units of concentration, obtained from inhibition or displacement. `COc1ccc(S(=O)(=O)n2c(=O)n(C(C(=O)NCc3ccccn3)c3ccccc3)c3cc(Cl)ccc32)cc1` (stereo not shown) [Example 111, 2-[6-Chloro-3-(4-methoxybenzenesulfonyl)-2-oxo-2,3-dihydrobenzimidazol-1-yl]-2-phenyl-N-pyridin-2-ylmethylacetamide]: the Ki is 500 to 10000 nM.
In the case of `COc1ccc(S(=O)(=O)n2c(=O)n(C(C(=O)NCc3cccnc3)c3ccccc3)c3cc(Cl)ccc32)cc1` (stereo not shown) [Example 112, 2-[6-Chloro-3-(4-methoxybenzenesulfonyl)-2-oxo-2,3-dihydrobenzimidazol-1-yl]-2-phenyl-N-pyridin-3-ylmethylacetamide], the Ki was 500 to 10000 nM.
On to `COc1ccc(S(=O)(=O)n2c(=O)n(C(C(=O)NCCCN3CCOCC3)c3ccccc3)c3cc(Cl)ccc32)cc1` (stereo not shown) [Example 113, 2-[6-Chloro-3-(4-methoxybenzenesulfonyl)-2-oxo-2,3-dihydrobenzimidazol-1-yl]-N-(3-morpholin-4-yl-propyl)-2-phenyl-acetamide], for which the Ki fell in the range of 500 to 10000 nM.
As for `COc1ccc(S(=O)(=O)n2c(=O)n(C(C(=O)NCCN3CCCCC3)c3ccccc3)c3cc(Cl)ccc32)cc1` (stereo not shown) [Example 114, 2-[6-Chloro-3-(4-methoxybenzenesulfonyl)-2-oxo-2,3-dihydrobenzimidazol-1-yl]-2-phenyl-N-(2-piperidin-1-ylethyl)acetamide], the figure is 500 to 10000 nM.
As for `COc1ccc(S(=O)(=O)n2c(=O)n(C(C(=O)NCCN3CCN(C)CC3)c3ccccc3)c3cc(Cl)ccc32)cc1` (stereo not shown) [Example 115, 2-[6-Chloro-3-(4-methoxybenzenesulfonyl)-2-oxo-2,3-dihydrobenzimidazol-1-yl]-N-[2-(4-methylpiperazin-1-yl)ethyl]-2-phenylacetamide], the figure is 100 to 500 nM; as for `COc1ccc(S(=O)(=O)n2c(=O)n(C(C(=O)NCCc3c[nH]cn3)c3ccccc3)c3cc(Cl)ccc32)cc1` (stereo not shown) [Example 116], 500 to 10000 nM; as for `COc1ccc(S(=O)(=O)n2c(=O)n(C(C(=O)N(C)CCCN(C)C)c3ccccc3)c3cc(Cl)ccc32)cc1` (stereo not shown) [Example 117, 2-[6-Chloro-3-(4-methoxybenzenesulfonyl)-2-oxo-2,3-dihydrobenzimidazol-1-yl]-N-(3-dimethylaminopropyl)-N-methyl-2-phenylacetamide], 100 to 500 nM.
As for `CCN(CCN(C)C)C(=O)C(c1ccccc1)n1c(=O)n(S(=O)(=O)c2ccc(OC)cc2)c2ccc(Cl)cc21` (stereo not shown) [Example 118, 2-[6-Chloro-3-(4-methoxybenzenesulfonyl)-2-oxo-2,3-dihydrobenzimidazol-1-yl]-N-(2-dimethylaminoethyl)-N-ethyl-2-phenylacetamide], the figure is below 100 nM; as for `CCN(CC)CCN(C)C(=O)C(c1ccccc1)n1c(=O)n(S(=O)(=O)c2ccc(OC)cc2)c2ccc(Cl)cc21` (stereo not shown) [Example 119, 2-[6-Chloro-3-(4-methoxybenzenesulfonyl)-2-oxo-2,3-dihydrobenzimidazol-1-yl]-N-(2-diethylaminoethyl)-N-methyl-2-phenylacetamide], 100 to 500 nM; as for `COc1ccc(S(=O)(=O)n2c(=O)n(C(C(=O)N(C)CCc3ccccn3)c3ccccc3)c3cc(Cl)ccc32)cc1` (stereo not shown) [Example 120, 2-[6-Chloro-3-(4-methoxybenzenesulfonyl)-2-oxo-2,3-dihydrobenzimidazol-1-yl]-N-methyl-2-phenyl-N-(2-pyridin-2-ylethyl)acetamide], 500 to 10000 nM.
For `COc1ccc(S(=O)(=O)n2c(=O)n(C(C(=O)NCCCO)c3ccccc3)c3cc(Cl)ccc32)cc1` (stereo not shown) [Example 121, 2-[6-Chloro-3-(4-methoxybenzenesulfonyl)-2-oxo-2,3-dihydrobenzimidazol-1-yl]-N-(3-hydroxypropyl)-2-phenylacetamide], the Ki lay in the range of 500 to 10000 nM.
As for `CCCOCCNC(=O)C(c1ccccc1)n1c(=O)n(S(=O)(=O)c2ccc(OC)cc2)c2ccc(Cl)cc21` (stereo not shown) [Example 122, 2-[6-Chloro-3-(4-methoxybenzenesulfonyl)-2-oxo-2,3-dihydrobenzimidazol-1-yl]-2-phenyl-N-(2-propoxyethyl)acetamide], the figure is 500 to 10000 nM.
The same measure for `COc1ccc(S(=O)(=O)n2c(=O)n(C(C(=O)NCCCCN(C)C)c3ccccc3)c3cc(Cl)ccc32)cc1` (stereo not shown) [Example 124, 2-[6-Chloro-3-(4-methoxybenzenesulfonyl)-2-oxo-2,3-dihydrobenzimidazol-1-yl]—N-(4-dimethylaminobutyl)-2-phenylacetamide]: 100 to 500 nM.
As for `COc1ccc(S(=O)(=O)n2c(=O)n(C(C(=O)NCCCN3CCCC3=O)c3ccccc3)c3cc(Cl)ccc32)cc1` (stereo not shown) [Example 125, 2-[6-Chloro-3-(4-methoxybenzenesulfonyl)-2-oxo-2,3-dihydrobenzimidazol-1-yl]-N-[3-(2-oxopyrrolidin-1-yl)propyl]-2-phenylacetamide], the figure is 500 to 10000 nM.
Turning to `COc1ccc(S(=O)(=O)n2c(=O)n(C(C(=O)N3CCCN(C)CC3)c3ccccc3)c3cc(Cl)ccc32)cc1` (stereo not shown) [Example 126, 5-Chloro-1-(4-methoxybenzenesulfonyl)-3-[2-(4-methyl-[1,4]diazepan-1-yl)-2-oxo-1-phenylethyl]-1,3-dihydrobenzoimidazol-2-one], the Ki is 100 to 500 nM.
With `COc1ccc(S(=O)(=O)n2c(=O)n(C(C(=O)N3CCN(C4CCN(C(=O)OC(C)(C)C)CC4)CC3)c3ccccc3)c3cc(Cl)ccc32)cc1` (stereo not shown) [Example 127, tert-Butyl 4-(4-{2-[6-chloro-3-(4-methoxybenzenesulfonyl)-2-oxo-2,3-dihydrobenzimidazol-1-yl]-2-phenylacetyl}piperazin-1-yl)piperidin-1-carboxylate], the inhibition constant (Ki) fell in the range of 500 to 10000 nM.
As for `CCCN1CCC(N2CCN(C(=O)C(c3ccccc3)n3c(=O)n(S(=O)(=O)c4ccc(OC)cc4)c4ccc(Cl)cc43)CC2)CC1` (stereo not shown) [Example 129, 5-Chloro-1-(4-methoxybenzenesulfonyl)-3-{2-oxo-1-phenyl-2-[4-(1-propylpiperidin-4-yl)piperazin-1-yl]ethyl}-1,3-dihydrobenzimidazol-2-one], the figure is 100 to 500 nM; as for `COc1ccc(S(=O)(=O)n2c(=O)n(C(C(=O)NCCN3CCN(C(=O)OC(C)(C)C)CC3)c3ccccc3)c3cc(Cl)ccc32)cc1` (stereo not shown) [Example 130, tert-Butyl 4-(2-{2-[6-chloro-3-(4-methoxybenzenesulfonyl)-2-oxo-2,3-dihydrobenzimidazol-1-yl]-2-phenylacetylamino}ethyl)piperazine-1-carboxylate], 500 to 10000 nM; as for `COc1ccc(S(=O)(=O)n2c(=O)n(C(C(=O)NCCN3CCNCC3)c3ccccc3)c3cc(Cl)ccc32)cc1` (stereo not shown) [Example 131, 2-[6-Chloro-3-(4-methoxybenzenesulfonyl)-2-oxo-2,3-dihydrobenzimidazol-1-yl]-2-phenyl-N-(2-piperazin-1-ylethyl)acetamide], 100 to 500 nM.
`CCCN1CCN(CCNC(=O)C(c2ccccc2)n2c(=O)n(S(=O)(=O)c3ccc(OC)cc3)c3ccc(Cl)cc32)CC1` (stereo not shown) [Example 133, 2-[6-Chloro-3-(4-methoxybenzenesulfonyl)-2-oxo-2,3-dihydrobenzimidazol-1-yl]-2-phenyl-N-[2-(4-propylpiperazin-1-yl)-ethyl]-acetamide]: the Ki was in the range of 100 to 500 nM.
The same measure for `COc1ccc(S(=O)(=O)n2c(=O)n(C(C(=O)NCCCN3CCNCC3)c3ccccc3)c3cc(Cl)ccc32)cc1` (stereo not shown) [Example 135, 2-[6-Chloro-3-(4-methoxybenzenesulfonyl)-2-oxo-2,3-dihydrobenzimidazol-1-yl] 2-phenyl-N-(3-piperazin-1-ylpropyl)acetamide]: 100 to 500 nM; for `CCCN1CCN(CCCNC(=O)C(c2ccccc2)n2c(=O)n(S(=O)(=O)c3ccc(OC)cc3)c3ccc(Cl)cc32)CC1` (stereo not shown) [Example 136, 2-[6-Chloro-3-(4-methoxybenzenesulfonyl)-2-oxo-2,3-dihydrobenzimidazol-1-yl]-2-phenyl-N-[3-(4-propylpiperazin-1-yl)propyl]-acetamide]: 100 to 500 nM; for `COc1ccc(S(=O)(=O)n2c(=O)n(C(C(=O)NCCCN3CCN(C)CC3)c3ccccc3)c3cc(Cl)ccc32)cc1` (stereo not shown) [Example 137, 2-[6-Chloro-3-(4-methoxybenzenesulfonyl)-2-oxo-2,3-dihydrobenzimidazol-1-yl]-N-[3-(4-methylpiperazin-1-yl)propyl]-2-phenyl-acetamide]: 100 to 500 nM.
The same measure for `COc1ccc(S(=O)(=O)n2c(=O)n(C(C(=O)N3CCCC(N4CCN(Cc5ccccc5)CC4)C3)c3ccccc3)c3cc(Cl)ccc32)cc1` (stereo not shown) [Example 139, 3-{2-[3-(4-Benzylpiperazin-1-yl)piperidin-1-yl]-2-oxo-1-phenylethyl}-5-chloro-1-(4-methoxybenzenesulfonyl)-1,3-dihydrobenzimidazol-2-one]: below 100 nM; for `COc1ccc(S(=O)(=O)n2c(=O)n(C(C(=O)N3CC[C@H](N4CCN(Cc5ccccc5)CC4)C3)c3ccccc3)c3cc(Cl)ccc32)cc1` (stereo partly drawn) [Example 140, 3-{2-[(S)-3-(4-Benzylpiperazin-1-yl)pyrrolidin-1-yl]-2-oxo-1-phenylethyl}-5-chloro-1-(4-methoxybenzenesulfonyl)-1,3-dihydrobenzimidazol-2-one]: below 100 nM.
